Assay [1] deals with scopolamine induced deficit (dementia/amnesia) in mice. Put plainly: Single trial passive avoidance test, scopolamine induced amnesia. It is filed as in vivo. The following applies: Mus musculus, 24 h. As for the experimental part:
Single trial passive avoidance is widely used as experimental test to assess learning memory functions in rodents. […] Passive Avoidance Test (in vivo): Study was conducted in adult Swiss male mice of 3-4 months (wt. 20-25 g) which were kept in standard housing condition with 12h light and dark cycle. Food and water were available ad libitum. […] Passive avoidance test was studied by a computerized shuttle box (Columbus Instruments, Ohio, USA) provided with a software program PACS 30. The shuttle box comprises of two compartments, isolated by an automated door. […] Each mouse was placed in the bright compartment and on transfer into the dark compartment it was given an electric shock (0.5 mA for 5 s) through floor grid. Transfer of mice from bright to dark compartment was recorded as transfer latency time (TLT) in seconds. TLT was recorded in control and treated groups (1st Trial, acquisition) and then after 24 hours (2nd Trial, retention). An increase in the TLT on 2nd Trial (retention) as compared to 1st Trial (acquisition) was taken as the criterion for successful learning and memory (cognitive activity). Scopolamine induced deficit (Dementia): Scopolamine a muscarinic antagonist, known to produce impairment in cognitive functions (dementia) in human as well as in experimental animals, was used to produce deficit (no significant increase on 2nd trial) in passive avoidance learning. Scopolamine was administered 5 min prior to 1st trial. Reversal of scopolamine induced deficit i.e. significant increase in 2nd trial by test substance indicates potential anti-dementia activity. […]. Drug administration: Scopolamine was administered 5 min prior to 1st trial in test group. Each test compound was administered orally in dose of 20µmol/kg (1% aq. suspension in gum acacia) 1 hour prior to 2nd trial in scopolamine treated mice (n=5). Scopolamine control group received 1 ml/kg of vehicle (1% aq. suspension in gum acacia) orally. Scopolamine was administered 5 min prior to 1st trial in test group. […] Donepezil (10 mg/kg, po, as1% aqueous suspension in gum acacia) was used as standard drug and given 1 hour prior to 2nd trial in scopolamine treated mice. Statistical analysis: Mean values and standard error (S.E.) of mean were calculated for TLT and specific activity of AChE in the different regions of brain samples of each group. The significance of difference between the values of AChE activity and TLT between the groups was determined by one-way ANOVA test that followed by Dunnett's test. Table 4: Effect of the compounds on scopolamine induced amnesia in passive avoidance test

Another assay addresses T1, Acetylcholinesterase (Rattus norvegicus, UniProt P37136).
T1 construct: Aliquots of this supernatant was diluted in the ratio of 1:10 and used as a source of enzyme for the assay; from tissue; host or cells: whole brain of adult SD male rats; 10% homogenate with 1% Triton X-100, 100,000 x g supernatant
T1 sequence (P37136 32-614): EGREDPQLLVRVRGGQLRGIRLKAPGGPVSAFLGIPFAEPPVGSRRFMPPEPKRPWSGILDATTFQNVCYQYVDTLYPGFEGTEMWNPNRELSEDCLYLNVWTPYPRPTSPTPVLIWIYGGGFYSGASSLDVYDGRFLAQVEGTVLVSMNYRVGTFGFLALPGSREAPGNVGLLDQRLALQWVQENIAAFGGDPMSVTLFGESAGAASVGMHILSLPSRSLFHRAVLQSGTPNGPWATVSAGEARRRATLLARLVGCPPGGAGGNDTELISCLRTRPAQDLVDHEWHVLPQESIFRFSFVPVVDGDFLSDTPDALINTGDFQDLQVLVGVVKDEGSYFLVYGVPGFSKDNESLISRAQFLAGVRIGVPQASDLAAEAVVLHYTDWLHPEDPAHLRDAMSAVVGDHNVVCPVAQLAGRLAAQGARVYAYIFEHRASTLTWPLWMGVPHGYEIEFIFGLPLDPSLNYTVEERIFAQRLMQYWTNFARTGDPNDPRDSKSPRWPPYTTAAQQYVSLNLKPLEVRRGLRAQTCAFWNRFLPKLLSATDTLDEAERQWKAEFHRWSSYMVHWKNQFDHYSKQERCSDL
Put plainly: Inhibitive effect on acetylcholinesterase activity (Ellman assay, rat brain homogenate supernatant). The following applies: for % Cholinesterase Enzyme Activity: Control AChE activity = 0.014446 (µmol / mg of protein/min). Type of assay: biochemical, rats. As for the experimental part:
The study was conducted in adult SD male rats (200-250 g). Rats were perfused under mild ether anesthesia through heart with ice cooled normal saline (0.9% NaCl) to reduce blood-borne cholinesterase from brain. After perfusion whole brain was taken out. 10% (w/v) homogenate of brain was prepared first by homogenizing in Ultra-Turrax T25 homogenizer at a speed of 9500 rpm thrice giving intervals for few seconds in between the runs, with sodium phosphate buffer (30 mmol/lit, pH 7.0). Sodium phosphate buffer was taken in a volume half to the final volume required for 10% homogenate. 1% Triton X-100 (1% w/v in 30 mmol/lit. sodium phosphate buffer, pH 7.0) is then added in a volume to make the final volume for 10% homogenate, slowly while stirring the homogenate on ice.
Kinetic profile of the enzyme activity was studied spectrophotometrically at 412 nm at an interval of 15 s. Assay for each sample was run in duplicate and each experiment was performed thrice.
The specific activity of AChE is expressed in µmoles/min/mg of protein.
[…] Tacrine (1µmol) was used as standard AChE inhibitor (standard control). The AChE inhibitory activity was calculated on the basis of % decrease change from control values i.e. AChE acivity without incubation with any standard or test drug.
Bovine serum albumin (BSA) was used as standard in the concentration of 1 mg/ml. was estimated in the range of 0.01-0. mg/ml.

Setting [2] is: % Learning in treated gp - % Learning in Scopolamine gp, test compound orally 20µmol/kg, Donepezil 10 mg/kg po, read-out: % Improvement in Learning.
The mark [3] stands for this setting: [2nd Trial - 1st trial/1st trial] x 100, scopolamine treated mice, test compound orally 20µmol/kg, Donepezil 10 mg/kg po, read-out: % Learning.

Where two headings read alike, the source gives them in different places.

A word on the IC50: it is the concentration that inhibits the measured activity by half. Read a low IC50 as greater potency.

On to `CCCCCCCNC(=O)Oc1ccc2ncccc2c1` [1b, heptyl-carbamic acid quinolin-6-yl ester], for which the change in vivo at 20 µmol/kg in assay [1] (setting [2]) is 107%; in assay [1] (setting [3]) it was 140%.
On the same counts, the results for `O=C(Nc1ccccc1Cl)Oc1ccc2ncccc2c1` [1c, (2-chloro-phenyl)-carbamic acid quinolin-6-yl ester] are 123% and 157%.
For the compound `O=C(Nc1cccc(Br)c1)Oc1ccc2c(c1)CCCN2` [2c, (3-bromo-phenyl)-carbamic acid 1,2,3,4-tetrahydro-quinolin-6-yl ester], the change in vivo at 20 µmol/kg in assay [1] (setting [2]) was determined as 67.4%; in assay [1] (setting [3]), 101%.
On the same counts, the results for `CCCCCCNC(=O)Oc1ccc2c(c1)CCCN2Cc1ccccc1` [2h, hexyl-carbamic acid 1-benzyl-1,2,3,4-tetrahydro-quinolin-6-yl ester] are 89.2% and 123%.
For the compound `O=C(Nc1ccccc1Cl)Oc1ccc2c(c1)CCCN2Cc1ccccc1` [2i, (2-chloro-phenyl)-carbamic acid 1-benzyl-1,2,3,4-tetrahydro-quinolin-6-yl ester], the IC50 against Acetylcholinesterase is 3.31 µM. Also, the “% Anticholinesterase Enzyme Inhibition” value at Acetylcholinesterase (Conc. 0.1 µm) turned out to be 6.45%; at Acetylcholinesterase (Conc. 0.3 µm), 16.12%; at Acetylcholinesterase (Conc. 1 µm), 25.80%; at Acetylcholinesterase (Conc. 3 µm) it was 48.38%; at Acetylcholinesterase (Conc. 10 µm) it was 87.09%. For the same compound, the “Cholinesterase Enzyme Activity” value was 0.01351 µmol / mg of protein/min on Acetylcholinesterase (Conc. 0.1 µm); 0.01211 µmol / mg of protein/min on Acetylcholinesterase (Conc. 0.3 µm); 0.01071 µmol / mg of protein/min on Acetylcholinesterase (Conc. 1 µm); 0.007456 µmol / mg of protein/min on Acetylcholinesterase (Conc. 3 µm); 0.001864 µmol / mg of protein/min on Acetylcholinesterase (Conc. 10 µm). Moreover, the “% Cholinesterase Enzyme Activity” value came to 93.54% on Acetylcholinesterase (Conc. 0.1 µm); 83.87% at Acetylcholinesterase (Conc. 0.3 µm); 74.19% at Acetylcholinesterase (Conc. 1 µm); 51.61% on Acetylcholinesterase (Conc. 3 µm); 12.90% at Acetylcholinesterase (Conc. 10 µm). The change in vivo at 20 µmol/kg in assay [1] (setting [2]) is 89.6%; in assay [1] (setting [3]) it was 123%.
`CN1CCCc2cc(OC(=O)Nc3ccc(Cl)c(C(F)(F)F)c3)ccc21` [2q, (4-chloro-3-trifluoromethyl-phenyl)-carbamic acid 1-methyl-1,2,3,4-tetrahydro-quinolin-6-yl ester]: the change in vivo at 20 µmol/kg is 76% in assay [1] (setting [2]) and 109% in assay [1] (setting [3]).
For the compound `CN1CCCc2cc(OC(=O)Nc3ccc(Br)cc3)ccc21` [2r, (4-bromo-phenyl)-carbamic acid 1-methyl-1,2,3,4-tetrahydro-quinolin-6-yl ester], the change in vivo at 20 µmol/kg in assay [1] (po, read-out: % Improvement in Learning) was determined as 62%; in assay [1] (po, read-out: % Learning), 95.6%.
Regarding `COc1cc2c(cc1OC)C(=O)C(CC1CCN(Cc3ccccc3)CC1)C2` (centres unmarked) [DONEPEZIL, donepezil, reference compound], the change in vivo at 20 µmol/kg in assay [1] (setting [2]) stood at 134%; in assay [1] (setting [3]), 168%.

For the origin of these results see patent publication EP1831172B1, “SUBSTITUTED CARBAMIC ACID QUINOLIN-6-YL ESTERS USEFUL AS ACETYLCHOLINESTERASE INHIBITORS” (priority 2004, dated 2006).
